Earlier results in patent US20200354402A1, “PEPTIDE COMPOSITIONS AND RELATED METHODS” (Allegro Pharmaceuticals, LLC, priority 2017, published 2020).

System: ischemia-induced retinal neovascularization
Conditions: intravitreal injection; stated as known

Substance: R—G—E.TFA [Test Compound 21]
- known activity of the control peptides: known to be inactive
